16 molecules from US4898867A, “Thienopyrimidine derivaties as aldose-reductase inhibitors” (Taiho Pharmaceutical Company, Limited, priority 1987, dated 1990) can be followed below.

SMILES strings stand for the structures. Where a name gives a salt, the structure may show the parent alone.

The assay deals with T1, aldose-reductase (AR) (Rattus norvegicus, UniProt P07943).
T1 construct: The supernatant obtained was used as AR; from tissue; host or cells: lenses of male Wistar rats (10000 rpm supernatant of homogenate)
The experiment in a line: Aldose-reductase inhibitory activity (decrease in absorbance of NADPH at 340 nm, glyceraldehyde substrate). The class given is biochemical, Wister male rats (lenses). The conditions noted are these: rat lens AR supernatant, 0.1M phosphate buffer pH 6.2, 30° C. The protocol:
The aldose-reductase (AR) activity was evaluated by determining spectrophotometrically the decrease in absorbance of NADPH at 340 nm due to the reduction of the substrate, i.e., glyceraldehyde according to the method described in Biochemical Pharmacology 25, pp 2505-2513 (1976).
The lenses of Wister male rats was homogenized with 0.5 ml of 0.1M phosphate buffer (pH 6.2) per lens by a glass homogenizer and the homogenate was centrifuged at 10000 rpm for 10 minutes. The supernatant obtained was used as AR.
The determination of the AR activity was conducted as follows. A 700 μl quantity of 0.1M phosphate buffer (pH 6.2), 100 μl of 2.21 mM NADPH, 100 μl of AR and 5 μl of DMSO containing each of test compounds in varying concentrations were placed in a cell for test sample, and 800 μl of 0.1M phosphate buffer (pH 6.2), 100 μl of 2.21 mM NADPH, 100 μl of AR and 5 μl of DMSO were placed in a cell for control. Then the solutions in the cells were thoroughly mixed together and the mixtures were maintained at 30° C. Then 100 μl of 100 mM glyceraldehyde maintained at 30° C. was added to a cell for test sample and quickly blended to initiate the reaction. The AR activity was determined from the rate of change of absorbance per minute in the linear part of variations of absorbance during a period of from 1 minute to three minutes after the start of the reaction, and a dose-response curve was drawn.
On to `O=C(O)Cn1c(=O)n(Cc2ccc(Br)cc2F)c(=O)c2c3c(sc21)CCCC3` [Compound I-15], for which half-maximal inhibition (IC50) was put at 23 nM.

As for `O=C(O)Cn1c(=O)n(Cc2ccc(Cl)cc2Cl)c(=O)c2c3c(sc21)CCCC3` [Compound I-8], the IC50 – broadly, the concentration at which inhibition is half-maximal – is 42 nM.

On to `O=C(O)Cn1c(=O)n(Cc2ccc(Br)cc2F)c(=O)c2cc(C3CCCC3)sc21` [Compound I-16], for which the IC50 was found to be 30 nM.

Consider `CC(C)c1cc2c(=O)n(Cc3ccc(Br)cc3F)c(=O)n(CC(=O)O)c2s1` [Compound I-17], for which the IC50 was determined as 22 nM.

As for `Cc1c(Cl)sc2c1c(=O)n(Cc1ccc(Cl)c(Cl)c1)c(=O)n2CC(=O)O` [Compound I-11], 25 nM corresponded to half-maximal inhibition (IC50).

`CC(C)c1cc2c(=O)n(Cc3ccc(Cl)cc3Cl)c(=O)n(CC(=O)O)c2s1` [Compound I-4] displayed a half-inhibitory concentration (IC50) of 17 nM.

As for `Cc1csc2c1c(=O)n(Cc1ccc(Br)cc1F)c(=O)n2CC(=O)O` [Compound I-20, 1-carboxymethyl-3-(4-bromo-2-fluorobenzyl)-5-methylthieno[2,3-d]pyrimidin-2,4(1H, 3H)-dione], the IC50 is 24 nM.

Take `Cc1csc2c1c(=O)n(Cc1ccc(Cl)c(Cl)c1)c(=O)n2CC(=O)O` [Compound I-5]: the IC50 was determined as 30 nM.

The molecule `O=C(O)Cn1c(=O)n(Cc2ccc(Br)cc2F)c(=O)c2cc(Cl)sc21` [I-24 (Lysine salt)] yielded an IC50 of 25 nM.

In turn, `CC(C)c1cc2c(=O)n(Cc3ccc(Cl)c(Cl)c3)c(=O)n(CC(=O)O)c2s1` [Compound I-3] returned an IC50 of 26 nM.

Consider `O=C(O)Cn1c(=O)n(Cc2ccc(Br)cc2F)c(=O)c2ccsc21` [Compound I-19], for which inhibition was half-maximal at 20 nM (IC50).

The molecule `O=C(O)Cn1c(=O)n(Cc2ccc(Br)cc2F)c(=O)c2cc(-c3ccccc3)sc21` [Compound I-13] yielded an IC50 of 34 nM.

In turn, `Cc1sc2c(c1C)c(=O)n(Cc1ccc(Cl)cc1Cl)c(=O)n2CC(=O)O` [Compound I-2] showed a concentration for half-maximal inhibition (IC50) of 20 nM.

As for `Cc1sc2c(c1C)c(=O)n(Cc1ccc(Br)cc1F)c(=O)n2CC(=O)O` [Compound I-14], the half-maximal inhibitory concentration (IC50) was 21 nM.

Take `Cc1sc2c(c1C)c(=O)n(Cc1ccc(Cl)cc1)c(=O)n2CC(=O)O` [Compound I-1, 1-carboxymethyl-3-(4-chlorobenzyl)-5,6-dimethylthieno[2,3-d]pyrimidin-2,4(1H, 3H)-dione]: the IC50 is 75 nM.

With `Cc1c(Br)sc2c1c(=O)n(Cc1ccc(Cl)c(Cl)c1)c(=O)n2CC(=O)O` [Compound I-10], the half-inhibitory concentration (IC50) was 26 nM.
